Measurements taken from article PMC9926234, “Iterative computational design and crystallographic screening identifies potent inhibitors targeting the Nsp3 macrodomain of SARS-CoV-2” (Proceedings of the National Academy of Sciences of the …, 2023).
Several values for one entry are separate records, joined by “and”; a condition that tells them apart may be missing. Equal entries are not always repeated. Where two headings read alike, the source gives them in different places.

What was measured:
SARS-CoV-2 NSP3 Mac1 [1] = target: T1, SARS-CoV-2 NSP3 Mac1 (Severe acute respiratory syndrome coronavirus 2, UniProt P0DTD1); test: biochemical; format: binding; conditions: for Ki: Ki estimation from HTRF-derived IC50, Cheng-Prusoff, peptide 400nM, Kd 2.68µM
SARS-CoV-2 NSP3 Mac1 [2] = target: T1, SARS-CoV-2 NSP3 Mac1; format: binding; conditions: for Refined occupancy: ligand occupancy after refinement (phenix.refine)
SARS-CoV-2 NSP3 Mac1 [3] = target: T1, SARS-CoV-2 NSP3 Mac1; format: binding; set-up: contains a conserved macrodomain enzyme (Mac1); conditions: for Spearman est (compound concentration vs apparent Tm): DSF dose responsiveness, 1 µM nsp3 mac1, adj p given
How it was run: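 Differential scanning fluorimetry using 5 µM Fluorescent Yellow dye in place of SYPRO Orange. Compounds run in triplicate at seven two-fold dilutions from 1,000 or 100 μM, with ΔTma taken against a DMSO control in the same plate region. Dose-response significance assessed by Spearman's coefficient between concentration and ΔTma.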

SARS-CoV-2 NSP3 Mac1 [4] = test: Overall hit call (binding in crystallographic soaking or the HTRF-based binding assay)
From the text: Supplement pnas.2212931120.sd01.xlsx, sheet "Compound Summary" | column: HIT*

[5] = HTRF ADPr-peptide displacement from SARS-CoV-2 Mac1, read-out: IC50
[6] = HTRF, several values in a cell are separate determinations, read-out: IC50
[7] = PanDDA event map, 1 minus background density correction, crystal soaking of Mac1
[8] = overall hit flag: binding in crystallographic soaking or the HTRF-based binding assay
[9] = maximal thermal upshift vs DMSO control
[10] = true hit = binding in crystallographic soaking or the HTRF-based binding assay
[11] = PanDDA 1-BDC value of the event, crystal soak, compound concentration 100 mM, per dataset
[12] = crystal soak, compound concentration 100 mM, per dataset
[13] = ligand modeled in the crystal structure, crystal soak, compound concentration 100 mM, per dataset
[14] = ligand modeled from this dataset, compound concentration 100 mM, Echo dispense volume 40 or 80 nl
[15] = IC50, HTRF ADPr-peptide displacement from SARS-CoV-2 Mac1

Row | Structure (SMILES) | IC50 (SARS-CoV-2 NSP3 Mac1 [1]; [5]) | Ki (SARS-CoV-2 NSP3 Mac1 [1]; read-out: Ki***) [µM] | 1-BDC (SARS-CoV-2 NSP3 Mac1 [2]; [7]) | Refined occupancy (SARS-CoV-2 NSP3 Mac1 [2]; crystal soaking of Mac1) | HIT* (SARS-CoV-2 NSP3 Mac1 [2]; [8]) | Spearman est (compound concentration vs apparent Tm) (SARS-CoV-2 NSP3 Mac1 [3]) | DSF max dTma (SARS-CoV-2 NSP3 Mac1 [3]; [9]) [°C] | IC50 (SARS-CoV-2 NSP3 Mac1 [1]; HTRF, read-out: IC50) [µM] | HIT* (SARS-CoV-2 NSP3 Mac1 [2]; [10]) | DSF max dTma (SARS-CoV-2 NSP3 Mac1 [3]; maximal thermal upshift) | 1-BDC (SARS-CoV-2 NSP3 Mac1 [2]; [11]) | PanDDA hit? (SARS-CoV-2 NSP3 Mac1 [2]; [12]) | Modeled? (SARS-CoV-2 NSP3 Mac1 [2]; [13]) | Modeled? (SARS-CoV-2 NSP3 Mac1 [2]; [14]) | also measured
1 | O=c1[nH]nc(C2CCCN(c3ncnc4[nH]ccc34)C2)o1 (stereo not shown) [Z7655] | 279 µM | 243 | 0.09 | 18 | Y | 0.22 | 0.6 | – | – | – | – | – | – | – | IC50 (SARS-CoV-2 NSP3 Mac1 [1]; [6]): 279 µM; 1-BDC (SARS-CoV-2 NSP3 Mac1 [2]; PanDDA 1-BDC (background density correction) of the event, crystal soak 100 mM, PanDDA run dmso_34): 0.09; PanDDA hit? (SARS-CoV-2 NSP3 Mac1 [2]; crystal soak, compound concentration 100 mM, PanDDA run dmso_34, series docking_lead-like_1): TRUE; Modeled? (SARS-CoV-2 NSP3 Mac1 [2]; ligand modeled in the crystal structure, crystal soak 100 mM, PanDDA run dmso_34): TRUE
2 | OC[C@H]1CCCN(c2ncnc3[nH]c4cc(F)ccc4c23)C1 [Z7873] | ≤ 90 µM and 90 µM | 78.6 | 0.06 | 12 | Y | 0.95 | 1.5 | – | – | – | – | – | – | – | IC50 (SARS-CoV-2 NSP3 Mac1 [1]; [6]): 90.3 µM; 1-BDC (SARS-CoV-2 NSP3 Mac1 [2]; PanDDA event map background density correction, crystal soak, Compound_concentration 100 mM, PanDDA run dmso_34): 0.06; PanDDA hit? (SARS-CoV-2 NSP3 Mac1 [2]; crystal soak, Compound_concentration 100 mM, Echo dispense 40 nl, PanDDA run dmso_34): TRUE; Modeled? (SARS-CoV-2 NSP3 Mac1 [2]; ligand modeled in crystal structure, crystal soak, Compound_concentration 100 mM, PanDDA run dmso_34): TRUE
3 | O=C(OCCN1CCOC1=O)c1ncnc2[nH]ccc12 [Z8207] | 60 µM | 52.3 | 0.38 | 76 | – | 0.99 | – | 60.1 | Y | 2.51 ˚C | – | – | – | – | –
4 | CNC(=O)Nc1ccc(C(=O)NC2c3ccccc3CC2C(=O)O)cc1 (stereo not shown) [Z8515] | 7.9 µM | 9 | 0.09 | 18 | Y | 0.98 | 3.71 | – | – | – | 0.09 | TRUE | TRUE | – | IC50 (SARS-CoV-2 NSP3 Mac1 [1]; [6]): 10.3 µM
5 | COC(=O)Nc1ccc(C(=O)NC2c3ccccc3CC2C(=O)O)cc1 (stereo not shown) [Z8531] | > 250 µM | – | 0.04 | 8 | Y | 0.72 | 0.6 | – | – | – | 0.04 | TRUE | TRUE | – | –
6 | O=C(NC1c2cccc(O)c2CC1C(=O)O)c1ccc(Nn2ccnc2)cc1 (stereo not shown) [Z8539_0011] | 19 µM | 16.5 | 0.35 | 70 | – | 0.18 | – | – | Y | 1.23 ˚C | 0.25 | TRUE | – | TRUE | –
7 | O=C(Nc1ccccc1)Nc1ccc(C(=O)NC2c3cccc(O)c3CC2C(=O)O)cc1 (stereo not shown) [Z8539_0023] | – | – | 0.17 | 34 | – | 0.81 | – | – | Y | 9.9 ˚C | 0.17 | TRUE | TRUE | – | IC50 (SARS-CoV-2 NSP3 Mac1 [1]; [15]): 0.5 µM; Ki (SARS-CoV-2 NSP3 Mac1 [1]; Ki***): 0.4 µM; thermal upshift (SARS-CoV-2 NSP3 Mac1 [3]; DSF): 9 °C
8 | O=C(Nc1ccc(C(=O)NCc2c(C(=O)O)sc3ccccc23)cc1)NC1CC1 [Z8539_0025] | 20 µM | 17.8 | 0.24 | 48 | – | 0.17 | – | 20.4 | Y | 0.91 ˚C | 0.24 | TRUE | – | TRUE | –
9 | O=C(Nc1ccc(C(=O)NCc2c(C(=O)O)oc3ccccc23)cc1)NC1CC1 [Z8539_0026] | 84 µM | 72.9 | 0.33 | 66 | – | 0.37 | – | 83.8 | Y | 3.52 ˚C | 0.3 | TRUE | – | TRUE | –
10 | O=C(Nc1ccc(C(=O)NCc2c(C(=O)O)[nH]c3ccccc23)cc1)NC1CC1 [Z8539_0027] | – | – | 0.23 | 46 | – | 0.7 | – | – | Y | 6.22 ˚C | 0.29 | TRUE | – | TRUE | IC50 (SARS-CoV-2 NSP3 Mac1 [1]; [15]): 7.6 µM; Ki (SARS-CoV-2 NSP3 Mac1 [1]; Ki***): 6.6 µM
11 | NC(=O)Nc1ccc(C(=O)NC2c3cccc(O)c3CC2C(=O)O)cc1 (stereo not shown) [Z8539_0041] | – | 1.1 | 0.24 | 48 | – | 0.6 | – | 1.3 | Y | 6 ˚C | 0.24 | TRUE | TRUE | – | binding to Mac1 in the HTRF assay, result in words (SARS-CoV-2 NSP3 Mac1 [1]): did not substantially change binding affinity
12 | CC(C)NC(=O)Nc1ccc(C(=O)NC2c3cccc(O)c3CC2C(=O)O)cc1 (stereo not shown) [Z8539_0046] | – | 0.7 | 0.21 | 42 | – | 0.49 | – | 0.8 | Y | 6.41 ˚C | 0.23 | TRUE | – | TRUE | binding to Mac1 in the HTRF assay, result in words (SARS-CoV-2 NSP3 Mac1 [1]): did not substantially change binding affinity
13 | CO[C@@H]1CN(c2ncnc3[nH]c4cc(F)ccc4c23)C[C@@H](CO)O1 [Z8973] | – | – | – | – | – | – | – | – | – | – | – | – | – | – | HIT* (SARS-CoV-2 NSP3 Mac1 [4]): Y
14 | COC(=O)C1(CO)CCN(c2ncnc3[nH]c4cc(F)ccc4c23)C1 (stereo not shown) [Z9556] | – | – | – | – | – | – | – | – | – | – | – | – | – | – | HIT* (SARS-CoV-2 NSP3 Mac1 [4]): Y
15 | O=C(O)CC1CN(c2ncnc3[nH]ccc23)CCO1 (stereo not shown) [Z9572] | 227 µM and 234 µM | 197 | 0.09 | 18 | Y | 0.62 | 0.66 | – | – | – | – | – | – | – | IC50 (SARS-CoV-2 NSP3 Mac1 [1]; [6]): 227 µM; Modeled? (SARS-CoV-2 NSP3 Mac1 [2]; ligand modeled in structure, crystal soak, Compound_concentration 100 mM): TRUE
16 | O=C(NC1c2ccccc2CC1C(=O)O)c1ccc(NC(=O)C2CC2)cc1 (stereo not shown) [Z9604] | > 250 µM | – | 0.04 | 8 | Y | 0.76 | 0.79 | – | – | – | 0.04 | TRUE | TRUE | – | –
